Results reported in ChEMBL document CHEMBL3779873, “Rubrolide analogues and their derived lactams as potential anticancer agents” (Medchemcomm, 2016).
Calls of active or inactive are those of the source. The calls are words filed in the database; no cut-off is given here.

Columns and labels:
[1] = test system: HL-60; test: Induction of cell cycle arrest in human HL60 cells assessed as accumulation at G0/G1 phase at 0.5 uM after 24 hrs by annexin V/propidium iodide staining based flow cytometry (reference value: 45.81 +/- 3.16%); type: functional
[2] = test system: HL-60; test: Induction of cell cycle arrest in human HL60 cells assessed as accumulation at sub-G0/G1 phase at 0.5 uM after 24 hrs by annexin V/propidium iodide staining based flow cytometry (reference value: 6.10 +/- 0.28 %); type: functional
[3] = Cytotoxicity against human HCT116 cells after 72 hrs by MTT assay; type: functional, HCT-116
[4] = test system: HL-60; test: Induction of apoptosis in human HL60 cells assessed as chromatin condensation at 0.5 uM after 24 hrs by giemsa staining-based light microscopy analysis; type: functional, cell-based
[5] = test system: HL-60; test: Induction of apoptosis in human HL60 cells assessed as cell shrinkage at 0.5 uM after 24 hrs by giemsa staining-based light microscopy analysis; type: functional
[6] = Cytotoxicity against human OVCAR8 cells after 72 hrs by MTT assay; type: functional, OVCAR-8
[7] = Cytotoxicity against human SF295 cells after 72 hrs by MTT assay; type: functional, SF-295
[8] = test system: HL-60; test: Induction of cell cycle arrest in human HL60 cells assessed as accumulation at S phase at 0.5 uM after 24 hrs by annexin V/propidium iodide staining based flow cytometry (reference value: 27.64 +/- 2.15%); type: functional
[9] = Cytotoxicity against human HL60 cells after 72 hrs by MTT assay; type: functional, HL-60
[10] = test system: HL-60; test: Induction of apoptosis in human HL60 cells assessed as nuclear fragmentation at 0.5 uM after 24 hrs by giemsa staining-based light microscopy analysis; type: functional, cell-based
[11] = test system: HL-60; test: Induction of cell cycle arrest in human HL60 cells assessed as accumulation at G2/M phase at 0.5 uM after 24 hrs by annexin V/propidium iodide staining based flow cytometry (reference value: 19.04 +/- 1.1%); type: functional
[12] = test system: HL-60; test: Induction of apoptosis in human HL60 cells assessed as mitochondrial depolarization at 5 uM after 24 hrs by rhodamine-123 as fluorescent dye based flow cytometry; type: functional
[13] = test system: HL-60; test: Induction of cell cycle arrest in human HL60 cells assessed as accumulation at S phase at 10 uM after 24 hrs by annexin V/propidium iodide staining based flow cytometry (reference value: 27.64 +/- 2.15 %); type: functional
[14] = test system: HL-60; test: Induction of apoptosis in human HL60 cells assessed as phosphatidylserine externalization at 10 uM after 24 hrs by annexin V/propidium iodide staining based flow cytometry; type: functional
[15] = test system: HL-60; test: Induction of apoptosis in human HL60 cells assessed as mitochondrial depolarization at 10 uM after 24 hrs by rhodamine-123 as fluorescent dye based flow cytometry; type: functional
[16] = test system: HL-60; test: Induction of cell cycle arrest in human HL60 cells assessed as accumulation at sub-G0/G1 phase at 5 uM after 24 hrs by annexin V/propidium iodide staining based flow cytometry (reference value: 6.10 +/- 0.28 %); type: functional
[17] = test system: HL-60; test: Induction of apoptosis in human HL60 cells assessed as decrease in viable cells at 10 uM after 24 hrs by acridine orange/ethidium bromide staining based fluorescence microscopy; type: functional
[18] = test system: HL-60; test: Induction of cell cycle arrest in human HL60 cells assessed as accumulation at G2/M phase at 10 uM after 24 hrs by annexin V/propidium iodide staining based flow cytometry (reference value: 19.04 +/- 1.10 %); type: functional
[19] = test system: HL-60; test: Induction of apoptosis in human HL60 cells assessed as chromatolysis at 2.5 to 10 uM after 24 hrs by giemsa staining-based light microscopy analysis; type: functional, cell-based
[20] = test system: HL-60; test: Induction of apoptosis in human HL60 cells assessed as phosphatidylserine externalization at 5 uM after 24 hrs by annexin V/propidium iodide staining based flow cytometry; type: functional
[21] = test system: HL-60; test: Induction of apoptosis in human HL60 cells assessed as increase in apoptotic cells after 24 hrs by acridine orange/ethidium bromide staining based fluorescence microscopy; type: functional, cell-based
[22] = test system: HL-60; test: Induction of cell cycle arrest in human HL60 cells assessed as accumulation at G2/M phase at 2.5 uM after 24 hrs by annexin V/propidium iodide staining based flow cytometry (reference value: 19.04 +/- 1.10 %); type: functional
[23] = Cytotoxicity against human HCT116 cells assessed as reduction in cell viability at 25 ug/mL after 72 hrs by MTT assay; type: functional, HCT-116
[24] = test system: HL-60; test: Induction of apoptosis in human HL60 cells assessed as cytoplasmic budding at 2.5 to 10 uM after 24 hrs by giemsa staining-based light microscopy analysis; type: functional, cell-based
[25] = test system: HL-60; test: Induction of apoptosis in human HL60 cells assessed as decrease in viable cells after 24 hrs by acridine orange/ethidium bromide staining based fluorescence microscopy; type: functional, cell-based
[26] = test system: HL-60; test: Induction of apoptosis in human HL60 cells assessed as chromatin condensation at 2.5 to 10 uM after 24 hrs by giemsa staining-based light microscopy analysis; type: functional, cell-based
[27] = Cytotoxicity against human SF295 cells assessed as reduction in cell viability at 25 ug/mL after 72 hrs by MTT assay; type: functional, SF-295
[28] = test system: HL-60; test: Induction of apoptosis in human HL60 cells assessed as decrease in viable cells at 2.5 uM after 24 hrs by acridine orange/ethidium bromide staining based fluorescence microscopy; type: functional
[29] = test system: HL-60; test: Induction of apoptosis in human HL60 cells assessed as reduction in cellular and nuclear volumes at 2.5 to 10 uM after 24 hrs by giemsa staining-based light microscopy analysis; type: functional, cell-based
[30] = test system: HL-60; test: Induction of cell cycle arrest in human HL60 cells assessed as accumulation at S phase at 5 uM after 24 hrs by annexin V/propidium iodide staining based flow cytometry (reference value: 27.64 +/- 2.15 %); type: functional
[31] = Cytotoxicity against mouse L929 cells after 72 hrs by MTT assay; type: cell-based; settings: read-out: RC50
[32] = test system: HL-60; test: Induction of cell cycle arrest in human HL60 cells assessed as accumulation at S phase at 2.5 uM after 24 hrs by annexin V/propidium iodide staining based flow cytometry (reference value: 27.64 +/- 2.15 %); type: functional
[33] = test system: HL-60; test: Induction of cell cycle arrest in human HL60 cells assessed as accumulation at G0/G1 phase at 5 uM after 24 hrs by annexin V/propidium iodide staining based flow cytometry (reference value: 45.81 +/- 3.16 %); type: functional
[34] = test system: HL-60; test: Induction of apoptosis in human HL60 cells assessed as increase in necrotic cells at 10 uM after 24 hrs by acridine orange/ethidium bromide staining based fluorescence microscopy; type: functional
[35] = test system: HL-60; test: Induction of apoptosis in human HL60 cells assessed as phosphatidylserine externalization at 2.5 uM after 24 hrs by annexin V/propidium iodide staining based flow cytometry; type: functional
[36] = test system: HL-60; test: Induction of cell cycle arrest in human HL60 cells assessed as accumulation at G2/M phase at 5 uM after 24 hrs by annexin V/propidium iodide staining based flow cytometry (reference value: 19.04 +/- 1.10 %); type: functional
[37] = test system: HL-60; test: Induction of cell cycle arrest in human HL60 cells assessed as accumulation at G0/G1 phase at 10 uM after 24 hrs by annexin V/propidium iodide staining based flow cytometry (reference value: 45.81 +/- 3.16 %); type: functional
[38] = test system: HL-60; test: Induction of apoptosis in human HL60 cells assessed as increase in apoptotic cells at 10 uM after 24 hrs by acridine orange/ethidium bromide staining based fluorescence microscopy; type: functional
[39] = test system: HL-60; test: Induction of apoptosis in human HL60 cells assessed as mitochondrial depolarization at 2.5 uM after 24 hrs by rhodamine-123 as fluorescent dye based flow cytometry; type: functional
[40] = test system: HL-60; test: Induction of cell cycle arrest in human HL60 cells assessed as accumulation at sub-G0/G1 phase at 2.5 uM after 24 hrs by annexin V/propidium iodide staining based flow cytometry (reference value: 6.10 +/- 0.28 %); type: functional
[41] = test system: HL-60; test: Induction of apoptosis in human HL60 cells assessed as decrease in viable cells at 5 uM after 24 hrs by acridine orange/ethidium bromide staining based fluorescence microscopy; type: functional
[42] = Cytotoxicity against human OVCAR8 cells assessed as reduction in cell viability at 25 ug/mL after 72 hrs by MTT assay; type: functional, OVCAR-8
[43] = test system: HL-60; test: Induction of cell cycle arrest in human HL60 cells assessed as accumulation at G0/G1 phase at 2.5 uM after 24 hrs by annexin V/propidium iodide staining based flow cytometry (reference value: 45.81 +/- 3.16 %); type: functional
[44] = test system: HL-60; test: Induction of apoptosis in human HL60 cells assessed as DNA fragmentation after 24 hrs by annexin V/propidium iodide staining based flow cytometry; type: functional, cell-based
[45] = test system: HL-60; test: Induction of apoptosis in human HL60 cells assessed as increase in necrotic cells after 24 hrs by acridine orange/ethidium bromide staining based fluorescence microscopy; type: functional, cell-based
[46] = test system: HL-60; test: Induction of apoptosis in human HL60 cells assessed as mitochondrial depolarization after 24 hrs by rhodamine-123 as fluorescent dye based flow cytometry; type: functional, cell-based
[47] = test system: HL-60; test: Induction of apoptosis in human HL60 cells assessed as increase in apoptotic cells at 2.5 uM after 24 hrs by acridine orange/ethidium bromide staining based fluorescence microscopy; type: functional
[48] = test system: HL-60; test: Induction of apoptosis in human HL60 cells assessed as intranuclear vacuoles at 2.5 to 10 uM after 24 hrs by giemsa staining-based light microscopy analysis; type: functional, cell-based
[49] = test system: HL-60; test: Induction of cell cycle arrest in human HL60 cells assessed as accumulation at sub-G0/G1 phase at 10 uM after 24 hrs by annexin V/propidium iodide staining based flow cytometry (reference value: 6.10 +/- 0.28 %); type: functional
[50] = test system: HL-60; test: Induction of apoptosis in human HL60 cells assessed as increase in apoptotic cells at 5 uM after 24 hrs by acridine orange/ethidium bromide staining based fluorescence microscopy; type: functional

COc1cccc2c1C(=O)c1c(O)c3c(c(O)c1C2=O)C[C@@](O)(C(=O)CO)C[C@@H]3O[C@H]1C[C@H](N)[C@H](O)[C@H](C)O1 [DOXORUBICIN]
Activity [1]: 33.78% | Activity [2]: 46.25% | RC50 [3]: 0.04 µM | Activity [4]: Active | Activity [5]: Active | RC50 [6]: 0.62 µM | RC50 [7]: 0.44 µM | Activity [8]: 15.5% | RC50 [9]: 0.02 µM | Activity [10]: Active | Activity [11]: 2.59%

COc1ccc(Br)cc1C1=C(Br)C(=O)O/C1=C\c1ccc(C(F)(F)F)cc1
Activity [12]: 47% | Activity [13]: 11.81% | Activity [14]: 48.1% | Activity [15]: 68% | Activity [16]: 23.17% | Activity [17]: 11.8% | Activity [18]: 9.12% | Activity [19]: Active | Activity [20]: 33.3% | RC50 [3]: 2.98 µM | Activity [21]: Dose-dependent effect | Activity [22]: 5.92% | Activity [23]: 98.22% | Activity [24]: Active | Activity [25]: Dose-dependent effect | Activity [26]: Active | Activity [27]: 91.06% | Activity [28]: 67.1% | Activity [29]: Active | Activity [30]: 12.93% | CC50 at 72 h [31]: > 50 µM | Activity [32]: 13.75% | Activity [33]: 72.43% | Activity [34]: 16.7% | RC50 [6]: 2.74 µM | RC50 [7]: 4.9 µM | Activity [35]: 16.2% | Activity [36]: 2.86% | Activity [37]: 31.64% | Activity [38]: 71.5% | Activity [39]: 35.1% | Activity [40]: 15.27% | Activity [41]: 38.8% | Activity [42]: 99.5% | Activity [43]: 72.81% | Activity [44]: Dose-dependent effect | RC50 [9]: 3.58 µM | Activity [45]: Dose-dependent effect | Activity [46]: Dose-dependent effect | Activity [47]: 31.3% | Activity [48]: Active | Activity [49]: 48.52%

O=C1O/C(=C\c2ccc(Br)cc2)C(Cl)=C1Cl
Activity [12]: 37.1% | Activity [13]: 7.26% | Activity [14]: 29% | Activity [15]: 56.2% | Activity [16]: 29.63% | Activity [17]: 47.3% | Activity [18]: 2.71% | Activity [19]: Active | Activity [20]: 19% | Activity [50]: 24.1% | RC50 [3]: 8.18 µM | Activity [21]: Dose-dependent effect | Activity [22]: 7.39% | Activity [23]: 98.27% | Activity [24]: Active | Activity [25]: Dose-dependent effect | Activity [26]: Active | Activity [27]: 94.12% | Activity [29]: Active | Activity [30]: 14.77% | CC50 at 72 h [31]: > 50 µM | Activity [32]: 24.16% | Activity [33]: 43.19% | Activity [34]: 12.7% | RC50 [6]: 13.68 µM | RC50 [7]: 14.68 µM | Activity [35]: 9.5% | Activity [36]: 4.68% | Activity [37]: 33.59% | Activity [38]: 46.8% | Activity [39]: 21.7% | Activity [40]: 17.5% | Activity [41]: 17.7% | Activity [42]: 98.99% | Activity [43]: 45.29% | Activity [44]: Dose-dependent effect | RC50 [9]: 3 µM | Activity [45]: Dose-dependent effect | Activity [46]: Dose-dependent effect | Activity [48]: Active | Activity [49]: 51.26%
